Laboratory results reported in ChEMBL document CHEMBL3431459, “Roche carnitine palmitoyltransferase modulator screening data (supplementary data associated with the publication CHEMBL2216752)”.
In brackets after ≈: the same amount, converted by molar mass.

Columns and labels:
[1] = SUPPLEMENTARY: PAMPA permeability assay; format: physicochemical; settings: read-out: Permeability
[2] = SUPPLEMENTARY: Lyophilisation Solubility Assay (LYSA); format: physicochemical; settings: read-out: Kinetic_solubility
[3] = biological target: T1, Carnitine O-palmitoyltransferase 1, muscle isoform (Homo sapiens, UniProt Q92523); assay: SUPPLEMENTARY: Inhibition of Carnitine palmitoyltransferase 1, muscle isoform; design: species or system Muscle tissue
T1 sequence (Q92523 whole entry): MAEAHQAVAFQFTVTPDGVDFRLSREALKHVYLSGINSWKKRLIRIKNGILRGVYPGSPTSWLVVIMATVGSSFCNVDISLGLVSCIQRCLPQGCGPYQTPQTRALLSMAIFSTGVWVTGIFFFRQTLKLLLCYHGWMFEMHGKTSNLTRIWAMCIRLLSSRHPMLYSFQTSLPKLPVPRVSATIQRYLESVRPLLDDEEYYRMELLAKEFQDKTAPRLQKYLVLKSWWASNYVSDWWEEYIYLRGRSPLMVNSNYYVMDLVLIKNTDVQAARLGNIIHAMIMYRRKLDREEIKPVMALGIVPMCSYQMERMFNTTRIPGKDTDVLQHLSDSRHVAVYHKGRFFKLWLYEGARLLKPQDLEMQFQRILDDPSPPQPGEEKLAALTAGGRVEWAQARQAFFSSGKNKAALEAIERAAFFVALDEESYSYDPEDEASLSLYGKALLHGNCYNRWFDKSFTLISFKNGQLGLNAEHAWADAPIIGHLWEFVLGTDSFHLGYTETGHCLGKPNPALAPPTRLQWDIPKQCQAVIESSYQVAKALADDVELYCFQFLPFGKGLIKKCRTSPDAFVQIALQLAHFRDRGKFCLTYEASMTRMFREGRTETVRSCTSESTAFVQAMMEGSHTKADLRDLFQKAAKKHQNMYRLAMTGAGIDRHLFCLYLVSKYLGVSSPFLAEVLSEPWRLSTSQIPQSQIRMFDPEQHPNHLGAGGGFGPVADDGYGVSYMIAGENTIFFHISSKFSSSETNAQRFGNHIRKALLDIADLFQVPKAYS

[4] = biological target: T2, Carnitine O-palmitoyltransferase 2, mitochondrial (Homo sapiens, UniProt P23786); assay: (§1) SUPPLEMENTARY: Inhibition of Carnitine palmitoyltransferase 2
T2 sequence (P23786 whole entry): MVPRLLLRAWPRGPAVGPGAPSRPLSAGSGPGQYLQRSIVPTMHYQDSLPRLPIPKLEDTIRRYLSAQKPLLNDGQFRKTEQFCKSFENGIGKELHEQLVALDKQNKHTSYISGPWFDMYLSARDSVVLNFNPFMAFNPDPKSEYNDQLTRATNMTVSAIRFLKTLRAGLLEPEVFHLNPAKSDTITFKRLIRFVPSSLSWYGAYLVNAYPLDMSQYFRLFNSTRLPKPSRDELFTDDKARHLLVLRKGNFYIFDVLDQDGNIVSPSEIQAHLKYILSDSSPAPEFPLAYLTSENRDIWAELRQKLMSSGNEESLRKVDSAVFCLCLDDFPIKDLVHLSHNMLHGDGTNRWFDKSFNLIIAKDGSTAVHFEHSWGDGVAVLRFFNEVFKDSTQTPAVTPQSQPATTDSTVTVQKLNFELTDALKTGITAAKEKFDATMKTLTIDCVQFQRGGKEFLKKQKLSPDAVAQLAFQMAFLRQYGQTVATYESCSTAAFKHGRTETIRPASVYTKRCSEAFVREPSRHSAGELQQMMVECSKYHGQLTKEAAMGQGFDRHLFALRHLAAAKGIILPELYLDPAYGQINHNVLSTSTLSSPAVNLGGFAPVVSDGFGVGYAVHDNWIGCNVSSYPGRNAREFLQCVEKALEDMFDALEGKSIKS

[5] = biological target: T3, Carnitine O-palmitoyltransferase 2, mitochondrial (Rattus norvegicus, UniProt P18886); assay: as §1
T3 sequence (P18886 whole entry): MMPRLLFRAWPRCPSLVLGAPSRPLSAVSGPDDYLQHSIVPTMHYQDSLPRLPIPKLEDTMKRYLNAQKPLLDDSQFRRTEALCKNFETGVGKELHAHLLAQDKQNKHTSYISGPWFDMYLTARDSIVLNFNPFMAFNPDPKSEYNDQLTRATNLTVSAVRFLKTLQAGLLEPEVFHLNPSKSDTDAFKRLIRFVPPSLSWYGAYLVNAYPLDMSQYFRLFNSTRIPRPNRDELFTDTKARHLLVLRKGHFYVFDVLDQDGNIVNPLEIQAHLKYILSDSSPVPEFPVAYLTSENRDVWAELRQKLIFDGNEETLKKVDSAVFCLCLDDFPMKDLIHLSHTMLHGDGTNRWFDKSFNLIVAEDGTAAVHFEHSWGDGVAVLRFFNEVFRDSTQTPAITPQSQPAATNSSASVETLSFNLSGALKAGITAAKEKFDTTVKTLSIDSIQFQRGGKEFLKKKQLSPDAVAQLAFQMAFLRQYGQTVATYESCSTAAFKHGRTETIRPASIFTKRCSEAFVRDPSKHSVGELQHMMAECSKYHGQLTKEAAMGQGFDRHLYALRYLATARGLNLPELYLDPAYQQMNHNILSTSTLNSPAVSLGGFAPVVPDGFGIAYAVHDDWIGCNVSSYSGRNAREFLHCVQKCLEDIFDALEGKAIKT

[6] = biological target: T4, Carnitine O-palmitoyltransferase 1, liver isoform (Rattus norvegicus, UniProt P32198); assay: (§2) SUPPLEMENTARY: Inhibition of Carnitine palmitoyltransferase 1, liver isoform
T4 sequence (P32198 whole entry): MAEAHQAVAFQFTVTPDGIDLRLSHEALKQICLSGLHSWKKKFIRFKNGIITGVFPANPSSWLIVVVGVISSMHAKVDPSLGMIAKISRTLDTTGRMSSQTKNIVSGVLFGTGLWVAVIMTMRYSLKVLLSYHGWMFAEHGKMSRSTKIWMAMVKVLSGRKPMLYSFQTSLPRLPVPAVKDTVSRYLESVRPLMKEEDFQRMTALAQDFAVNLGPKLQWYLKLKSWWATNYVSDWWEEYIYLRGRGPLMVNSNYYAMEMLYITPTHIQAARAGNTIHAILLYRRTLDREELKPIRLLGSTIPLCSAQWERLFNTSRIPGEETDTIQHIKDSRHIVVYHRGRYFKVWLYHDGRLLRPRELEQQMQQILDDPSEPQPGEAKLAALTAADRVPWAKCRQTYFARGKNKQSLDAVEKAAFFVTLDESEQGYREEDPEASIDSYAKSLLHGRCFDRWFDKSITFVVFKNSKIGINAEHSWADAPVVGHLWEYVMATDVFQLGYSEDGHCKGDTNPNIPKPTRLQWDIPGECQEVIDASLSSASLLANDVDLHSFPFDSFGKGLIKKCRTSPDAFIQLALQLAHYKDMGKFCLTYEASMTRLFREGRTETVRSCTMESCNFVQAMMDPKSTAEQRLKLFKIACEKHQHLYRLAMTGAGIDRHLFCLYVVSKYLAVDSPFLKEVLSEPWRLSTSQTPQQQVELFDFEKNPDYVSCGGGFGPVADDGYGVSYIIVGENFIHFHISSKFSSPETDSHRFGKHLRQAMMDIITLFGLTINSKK

[7] = biological target: T5, Carnitine O-palmitoyltransferase 1, liver isoform (Homo sapiens, UniProt P50416); assay: as §2
T5 sequence (P50416 whole entry): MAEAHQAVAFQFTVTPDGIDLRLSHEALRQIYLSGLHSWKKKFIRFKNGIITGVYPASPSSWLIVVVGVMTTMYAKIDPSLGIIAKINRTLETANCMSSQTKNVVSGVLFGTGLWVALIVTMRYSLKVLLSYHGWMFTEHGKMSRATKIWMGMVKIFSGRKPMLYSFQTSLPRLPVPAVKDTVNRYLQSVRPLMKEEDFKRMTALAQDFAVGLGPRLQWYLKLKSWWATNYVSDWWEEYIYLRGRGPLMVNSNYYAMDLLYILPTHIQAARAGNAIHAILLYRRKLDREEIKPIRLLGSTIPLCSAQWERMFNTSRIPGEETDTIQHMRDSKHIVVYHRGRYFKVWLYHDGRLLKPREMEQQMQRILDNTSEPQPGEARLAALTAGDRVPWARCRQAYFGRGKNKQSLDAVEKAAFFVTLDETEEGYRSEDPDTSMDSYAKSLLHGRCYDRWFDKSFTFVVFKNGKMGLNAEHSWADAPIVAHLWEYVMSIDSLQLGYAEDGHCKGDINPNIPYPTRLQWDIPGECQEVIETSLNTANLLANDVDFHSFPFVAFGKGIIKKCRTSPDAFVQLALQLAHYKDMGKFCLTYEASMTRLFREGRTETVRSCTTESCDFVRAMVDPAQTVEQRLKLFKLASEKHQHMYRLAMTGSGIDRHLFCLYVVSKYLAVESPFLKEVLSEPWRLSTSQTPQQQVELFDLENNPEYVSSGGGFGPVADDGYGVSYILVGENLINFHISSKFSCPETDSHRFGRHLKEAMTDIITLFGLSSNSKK

[8] = SUPPLEMENTARY: Lipophilicity (log D) Determination by high-throughput shake-flask; format: physicochemical; settings: octanol/water

Structure (SMILES)	Papp [1]	solubility kinetic [2]	IC50 [3]	IC50 [4]	IC50 [5]	IC50 [6]	IC50 [7]	logD [8]
O=C(COc1ccccc1)N1CCCC[C@@H]1c1noc(-c2ccc(-n3cnnn3)cc2)n1	1.7 ×10⁻⁶ cm/s	8 µg/mL (≈ 18.5 µM)	> 100000 nM	15000 nM	> 100000 nM	98.1 nM	98.6 nM	2.92
COc1ccc(Cl)cc1S(=O)(=O)N1COc2c(F)cc(C(=O)Nc3ccc(C(=O)O)c(F)c3)cc21	1.87 ×10⁻⁶ cm/s	59 µg/mL (≈ 112 µM)	4930 nM	1950 nM	10500 nM	84.4 nM	61.7 nM	0.63
COc1cccc2c1CCN(C(=O)[C@H]1CCCCN1C(=O)COc1ccccc1)C2	5.46 ×10⁻⁶ cm/s	23 µg/mL (≈ 56.3 µM)	> 100000 nM	983 nM	2190 nM	473 nM	219 nM	3.13
CCOC(=O)c1cncc(-c2noc([C@H]3CCCCN3C(=O)COc3ccccc3)n2)c1	1.56 ×10⁻⁶ cm/s	9 µg/mL (≈ 20.6 µM)	> 100000 nM	24300 nM	> 100000 nM	399 nM	78.6 nM	3.38
Cc1cc(-c2nc([C@H]3CCCCN3C(=O)COc3ccccc3)no2)no1	6.78 ×10⁻⁶ cm/s	39 µg/mL (≈ 106 µM)	> 100000 nM	> 100000 nM	> 100000 nM	448 nM	166 nM	2.62
O=C([C@H]1CCCCN1C(=O)COc1ccccc1)N1Cc2ccc(C3CCOC3)cc2C1 (some centres not stated)	4.71 ×10⁻⁶ cm/s	46 µg/mL (≈ 106 µM)	> 100000 nM	473 nM	701 nM	77.2 nM	63.5 nM	2.72
O=C(COc1ccccc1)N1CCCC[C@@H]1c1noc(-c2cc[nH]n2)n1	5.94 ×10⁻⁶ cm/s	22 µg/mL (≈ 62.3 µM)	> 100000 nM	> 100000 nM	> 100000 nM	225 nM	221 nM	2.22
CCOc1ccc(C(=O)Nc2ccc(C(=O)O)c(F)c2)cc1N(CCS(=O)O)S(=O)(=O)c1cc(Cl)ccc1OC	0.07 ×10⁻⁶ cm/s	> 685 µg/mL	27700 nM	> 100000 nM	> 100000 nM	140 nM	146 nM	-1.31

The next lines start with the values.

Papp [1]	solubility kinetic [2]	IC50 [3]	IC50 [4]	IC50 [5]	IC50 [6]	IC50 [7]	logD [8]	Structure (SMILES)
1.93 ×10⁻⁶ cm/s	150 µg/mL (≈ 291 µM)	1010 nM	> 100000 nM	> 100000 nM	59.7 nM	58.7 nM	1.17	COc1ccc(Cl)cc1CN1C(=O)OC(C)(C)c2ccc(C(=O)Nc3nc(CC(=O)O)cs3)cc21
0.85 ×10⁻⁶ cm/s	417 µg/mL (≈ 778 µM)	9620 nM	> 100000 nM	> 100000 nM	89.8 nM	219 nM	-0.29	COc1ccc(Cl)cc1CN1C(=O)CS(=O)(=O)c2ccc(C(=O)Nc3nc(CC(=O)O)cs3)cc21
0.51 ×10⁻⁶ cm/s	19 µg/mL (≈ 40.4 µM)	2410 nM	> 100000 nM	> 100000 nM	54.8 nM	40.6 nM	2.39	COc1ccc(Cl)cc1Cc1cn(C)c2ccc(C(=O)Nc3nc(CC(=O)O)cs3)cc12
1.53 ×10⁻⁶ cm/s	31 µg/mL (≈ 61.5 µM)	1720 nM	> 100000 nM	> 100000 nM	75.9 nM	125 nM	0.72	COc1ccc(Cl)cc1CN1C(=O)CSc2ccc(C(=O)Nc3nc(CC(=O)O)cs3)cc21
2.93 ×10⁻⁶ cm/s	13 µg/mL (≈ 26.6 µM)	5490 nM	2890 nM	6560 nM	40.7 nM	56.1 nM	0.65	COc1ccc(Cl)cc1S(=O)(=O)N1COc2ccc(C(=O)Nc3ccc(C(=O)O)cc3)cc21
0.38 ×10⁻⁶ cm/s	> 617 µg/mL	> 100000 nM	> 100000 nM	> 100000 nM	169 nM	218 nM	-0.49	COc1ccc(Cl)cc1S(=O)(=O)N1CC(C(=O)O)Oc2ccc(C(=O)Nc3ccccc3F)cc21 (configuration not stated)
